# Like-named read-outs stand apart in the source and are kept apart here.
# Experiments:
# [1] = test system: AML KG-1 human myeloid cell line; assay: Test A: apoptosis induction in AML KG-1 cell line; assay type: cell-based
# Excerpt: Inhibition of Cell Growth and Induction of Apoptosis in AML KG-1 Human Myeloid Cell Line.
# Methods for measuring the inhibition of cell growth and induction of apotosis followed literature procedures (Dawson, M. I., et al., J. Med. Chem., 2007, 50, 2622-2639).
# [2] = Test H: aqueous solubility by UV absorbance; assay type: physicochemical; conditions: thermodynamic from solid, 22° C.
# Protocol: Standard curves at the UV λmax (330, 350 and 345 nm for 3-Cl-AHPC, 18 and 16, respectively) were generated using 0.245, 0.163, 0.049 and 0.025 mM 3-Cl-AHPC and 0.380, 0.178, 0.053 and 0.027 mM 18 and 16, which were prepared from 1.0% (wt/vol) solutions of compounds in Me2SO. […] Measurements for maximum solubilities in distilled water (pH 5) and phosphate-buffered saline (PBS, pH 7.2) at 22° C. were made by UV absorbance using solutions obtained after saturation at higher temperatures, overnight incubation at 22° C., and centrifugation to remove undissolved material.
# TF(v-SRC) cells = assay: Test B: apoptosis of TF(v-SRC) cells (acridine orange/ethidium bromide, nuclear fragmentation); assay type: cell-based; conditions: FIG. 2C
# Protocol: FIG. 2 illustrates apoptosis induction in FFMA-AML and TF(v-SRC) cells by 3-Cl-AHPC and compound 16. Cells were seeded at 1×10^4 cells/ml, grown for 24 h and then exposed to 1 μM compound 16 or 3-Cl-AHPC A) at various concentrations of the compound for 96 h and B) for increasing times of exposure. C) Induction of apoptosis by 3-Cl-AHPC, all-trans-retinoic acid, 9-cis-retinoic acid and TTNPB in FFMA-AML and TF(v-SRC) cells. The percentage of apoptotic cells was determined using acridine orange and ethidium bromide staining to determine nuclear fragmentation as described in the general biochemical and pharmacological materials and methods. The error bars represent the mean of three separate determinations +/− the standard deviation (SD).
# FFMA-AML cells were obtained from a patient with a diagnosis of AML as indicated by the immunophenotyping described in Table 1. This patient was refractory to the chemotherapy regimens consisting of cytosine arabinoside given with daunomycin as well as high-dose cytosine arabinoside. Peripheral blood samples were obtained from the patient utilizing a Wayne State University Institutional Review Board approved protocol and the leukemic blasts were isolated utilizing Ficoll hypaque. The isolated leukemic cells (representing >99% of the cells) were subsequently cultured in RPMI 1640 supplemented with 10% heat-inactivated fetal bovine serum (FBS) and growth factors interleukin 3 (IL-3), granulocyte-colony stimulating factor (G-CSF), granulocyte/macrophage colony-stimulating factor (GM-CSF), and stem cell factor (SCF) as we have previously reported, and then the cells were maintained in 10% FBS and gentamycin (Zhang Y. et al., Blood, 2003; […]:3743-3752). The TF(v-SRC) leukemia cells have been previously described (Black J. H. et al., Leukemia. 2003; 17:155-159). TF(v-SRC) cells were grown in RPMI 1640 supplemented with 10% heat inactivated FBS.
# Apoptosis of cells was determined by (1) acridine orange and ethidium bromide-staining to assess cells with nuclear fragmentation and chromatin condensation as previously described (Farhana L. et al., Cancer Res. 2006; 65:4909-4917) and (2) flow cytometry assessing Annexin V-FITC binding together with propidium iodide staining (Annexin V-FITC apoptosis Detection kit 1, BD Biosciences, San Diego, Calif.). Data acquisition was done on a FACS Calibur flow cytometer (BD) and analyzed with CellQuest software.
# Cells were grown in the presence and absence of increasing concentrations of either 3-Cl-AHPC or compound 16 and for varying periods of time. There was a progressive increase in 3-Cl-AHPC- and compound 16-mediated apoptosis in both FFMA-AML and TF(v-SRC) cells with time and with increasing concentrations of the compounds. […] We therefore tested the sensitivity of FFMA-AML and TF(v-SRC) cells to apoptosis induction by tRA, 9-cis RA, and TTNPB (FIG. 2C).
# [3] = test system: acute promyelocytic leukemia (APL); conditions: pharmacologic concentrations; cited from earlier work
Compound,Apoptosis Induction (% control) 1.0 μM ([1]; treatment time 48 h),Apoptosis Induction (% control) 5.0 μM ([1]; treatment time 48 h),further results
O=C(O)/C=C/c1ccc(-c2ccc(O)c(C34CC5CC(CC(C5)C3)C4)c2)cn1,36 % control,52 % control,–
"CCOC(=O)/C=C/c1ccc(-c2ccc(O)c(C34CC5CC(CC(C5)C3)C4)c2)nc1 [Compound 18, Ethyl(E)-3-{6-[3′-(1-adamantyl)-4′-hydroxyphenyl]-3-pyridinyl}-2-propenoate]",–,–,"solubility ([2]; phosphate-buffered saline, aqueous buffer, PBS pH 7.2, read-out: Solubility (μM) at 22° C. PBS (pH 7.2)): 14 µM; solubility ([2]; distilled water pH 5, read-out: Solubility (μM) at 22° C. Distilled water (pH 5)): 7 µM; melting point: 215 to 217 °C"
O=C(O)/C=C/c1ccc(-c2ccc(O)c(C34CC5CC(CC(C5)C3)C4)c2)nn1,52 % control,67 % control,–
"O=C(O)CNc1cnc(-c2ccc(O)c(C34CC5CC(CC(C5)C3)C4)c2)nc1 [Compound 17, 2-[3-(1-Adamantyl)-4-hydroxyphenyl]-5-(carboxymethylamino)pyrimidine]",–,–,melting point: 235 °C (dec.)
O=C(O)/C=C/c1cnc(-c2ccc(O)c(C34CC5CC(CC(C5)C3)C4)c2)nc1 [drawing 23],40 % control,50 % control,–
"CC1=C(/C=C/C(C)=C/C=C/C(C)=C/C(=O)O)C(C)(C)CCC1 [tRA, all-trans-retinoic acid]",–,–,induction of apoptosis (TF(v-SRC) cells): no real increase in apoptosis; patients achieving a complete remission [3]: 90%
"CC1=C(/C=C/C(C)=C\C=C\C(C)=C\C(=O)O)C(C)(C)CCC1 [Compound 9-cis-RA, 9-cis-retinoic acid]",–,–,induction of apoptosis (TF(v-SRC) cells): no real increase in apoptosis
CCOC(=O)/C=C/c1ccc(-c2ccc(O)c(C34CC5CC(CC(C5)C3)C4)c2)nc1 [drawing 25],55 % control,–,Apoptosis Induction (% control) 1.0 μM ([1]; treatment time 24 h): 60 % control; Apoptosis Induction (% control) 5.0 μM ([1]; treatment time 24 h): 68 nd % control
O=C(O)/C=C/c1ccc(-c2ccc(O)c(C34CC5CC(CC(C5)C3)C4)c2)c(Cl)c1,30 % control,55 % control,–
CC(=O)Oc1ccc(-c2ccc(/C=C/C(=O)O)cn2)cc1C12CC3CC(CC(C3)C1)C2,0 % control,0 % control,–
"O=C(O)/C=C/c1cnc(-c2ccc(O)c(C34CC5CC(CC(C5)C3)C4)c2)cn1 [Compound 23, (E)-3-{2-[3-(1-Adamantyl)-4-hydroxyphenyl]-5-pyrazinyl}-2-propenoic Acid]",–,–,melting point: 296 °C (dec.)
O=C(O)/C=C/c1cnc(-c2ccc(O)c(C34CC5CC(CC(C5)C3)C4)c2)c(Cl)c1,55 % control,65 % control,–
O=C(O)CNc1cnc(-c2ccc(O)c(C34CC5CC(CC(C5)C3)C4)c2)nc1 [drawing 24],0 % control,0 % control,–
O=C(O)/C=C/c1cnc(-c2ccc(O)c(C34CC5CC(CC(C5)C3)C4)c2)cn1 [drawing 30],39 % control,50 % control,–
C/C(=C\c1ccc(C(=O)O)cc1)c1ccc2c(c1)C(C)(C)CCC2(C)C [TTNPB],–,–,induction of apoptosis (TF(v-SRC) cells): no real increase in apoptosis
O=C(O)/C=C/c1ccc(-c2ccc(O)c(C34CC5CC(CC(C5)C3)C4)c2)nc1,48 % control,59 % control,–

# Source: US9096544B2, “Therapeutic compounds” (Wayne State University, priority 2009, dated 2015)
